Experimental data taken from PMC7382816 (BMC Pharmacology & Toxicology, 2020).
Read-outs that look alike come from different tables or passages of the source.

How the values were obtained:
[1] = 40 mg; ref [27] Huber et al.; cited from earlier work
[2] = Single-dose pharmacokinetics in healthy volunteers under fasting and fed (high-fat breakfast) conditions, plasma concentrations by HPLC-MS, non-compartmental analysis; assay type: in vivo, human; design: Ke: unit not given here; conditions: for AUC(0-inf) / CL/F / Vd/F / half-life / Cmax / Tmax: human, plasma; for Cmax: read-out: Cmax
Text: The bioequivalence clinical trials were phase I, randomized, open-label, crossover, single-centre, with two periods separated by a 7-day washout stage. Subjects were randomised to one of the two treatment sequences, RT or TR where R was the reference formulation and T was the test formulation. Each of the clinical trial was crossover for evaluation of a test formulation compared to a reference formulation either under fed or fasting conditions. […] The treatments were allocated in a balanced manner on every inclusion day (blocks of 4 subjects). Our study adheres to CONSORT guidelines. […] Sample processing, genotyping for CYP2C19 and drug quantification were performed according to Román et al. […] Pharmacokinetic parameters were estimated from the plasma concentration–time data by non-compartmental analysis (WinNonlin Professional, version 2.0., Pharsight Corporation, USA) as reported by Román et al. […] WinNonLin Professional software version 2.0 was used for the statistical analysis. Pharmacokinetic parameters were log-transformed, and AUC and Cmax were adjusted for dose and weight. The values of pharmacokinetic parameters were expressed as mean ± standard deviation.

[3] = both sexes, oral, only CYP2C19*1/*1 subjects, Fast, men and women, mean ± SD
[4] = both sexes, oral, only CYP2C19*1/*1 subjects, Fed, men and women, mean ± SD
[5] = both sexes, po, Fast, all subjects, single oral dose, mean ± SD
[6] = both sexes, po, Fed (high-fat breakfast), all subjects, single oral dose, mean ± SD
[7] = female, oral, only CYP2C19*1/*1 subjects, Fast, women, mean ± SD
[8] = female, oral, only CYP2C19*1/*1 subjects, Fed, women, mean ± SD
[9] = female, po, Fast, women, single oral dose, mean ± SD
[10] = female, po, Fed, women, single oral dose, mean ± SD
[11] = male, oral, only CYP2C19*1/*1 subjects, Fast, men, mean ± SD
[12] = male, oral, only CYP2C19*1/*1 subjects, Fed, men, mean ± SD
[13] = male, po, Fast, men, single oral dose, mean ± SD
[14] = male, po, Fed, men, single oral dose, mean ± SD

In the case of `COc1ccnc(C[S+]([O-])c2nc3ccc(OC(F)F)cc3[nH]2)c1OC` (stereo not drawn) [Pantoprazole, pantoprazole], the “effect of concomitant intake of a standard breakfast on bioavailability” value [1] is listed as “no effect on bioavailability”, the Ke ([2]; Fast, all subjects, single oral dose, mean ± SD) is listed as 0.61 ± 0.21 and the Ke ([2]; Fast, men, single oral dose, mean ± SD) is listed as 0.56 ± 0.23. It also gave a Ke ([2]; Fast, women, single oral dose, mean ± SD) of 0.65 ± 0.18, a Ke ([2]; Fed (high-fat breakfast), all subjects, single oral dose, mean ± SD) of 0.63 ± 0.21 and a Ke ([2]; Fed, men, single oral dose, mean ± SD) of 0.61 ± 0.23. It also gave a Ke ([2]; Fed, women, single oral dose, mean ± SD) of 0.65 ± 0.19, an AUC(0-inf) [2, 3] of 6090 ± 2920 ng·h/mL and a CL/F [2, 3] of 2 mL/min/kg. For the same compound, the Vd/F [2, 3] was 0.18 ± 0.03 L/kg, the half-life [2, 3] was 1.2 ± 0.4 h and the Cmax [2, 3] was 2540 ± 836 ng/mL. The Tmax ([2]; both sexes, oral, only CYP2C19*1/*1 subjects, Fast, men and women, mean ± SD, read-out: Tmax) was 3 ± 0.7 h, the AUC(0-inf) [2, 4] was 4690 ± 2300 ng·h/mL and the CL/F [2, 4] was 2.67 mL/min/kg. For the same compound, the Vd/F [2, 4] was 0.24 ± 0.05 L/kg, the half-life [2, 4] was 1.2 ± 0.5 h and the Cmax [2, 4] was 2660 ± 531 ng/mL. For the same compound, the Tmax ([2]; both sexes, oral, only CYP2C19*1/*1 subjects, Fed, men and women, mean ± SD, read-out: Tmax) was 5.7 ± 1.2 h, the Tmax ([2]; both sexes, oral, under fasting conditions, range among subjects, read-out: Tmax range) was 1.5 to 5 h and the Tmax ([2]; both sexes, oral, under fed conditions, range among subjects, read-out: Tmax range) was 1 to 21 h. For the same compound, the AUC(0-inf) [2, 5] was 6950 ± 3290 ng·h/mL, the CL/F [2, 5] was 1.83 mL/min/kg and the Vd/F [2, 5] was 0.17 ± 0.03 L/kg. The half-life [2, 5] was 1.3 ± 0.6 h, the Cmax [2, 5] was 2780 ± 862 ng/mL and the Tmax ([2]; both sexes, po, Fast, all subjects, single oral dose, mean ± SD, read-out: Tmax) was 3 ± 0.8 h. The AUC(0-inf) [2, 6] was 4630 ± 2020 ng·h/mL, the CL/F [2, 6] was 2.67 mL/min/kg and the Vd/F [2, 6] was 0.26 ± 0.1 L/kg. The half-life [2, 6] was 1.3 ± 0.6 h, the Cmax [2, 6] was 2650 ± 603 ng/mL and the Tmax ([2]; both sexes, po, Fed (high-fat breakfast), all subjects, single oral dose, mean ± SD, read-out: Tmax) was 7 ± 3 h. For the same compound, the “AUC lower under fed conditions” value ([2]; fed vs fasting, all subjects) was 33%, the “Delay of mean Tmax (absorption) by food” value ([2]; fed vs fasting, all subjects) was “around 4 h” and the “Delay of Tmax by food” value ([2]; fed vs fasting, only subjects with CYP2C19*1/*1) was 2.7 h. For the same compound, the AUC(0-inf) [2, 7] was 7820 ± 2700 ng·h/mL, the CL/F [2, 7] was 1.83 mL/min/kg and the Vd/F [2, 7] was 0.16 ± 0.04 L/kg. The half-life [2, 7] was 1.1 ± 0.2 h, the Cmax [2, 7] was 3230 ± 685 ng/mL and the Tmax ([2]; female, oral, only CYP2C19*1/*1 subjects, Fast, women, mean ± SD, read-out: Tmax) was 2.9 ± 0.8 h. It also gave an AUC(0-inf) [2, 8] of 4910 ± 2190 ng·h/mL, a CL/F [2, 8] of 2.83 mL/min/kg and a Vd/F [2, 8] of 0.25 ± 0.06 L/kg. The half-life [2, 8] was 1.1 ± 0.3 h, the Cmax [2, 8] was 2790 ± 476 ng/mL and the Tmax ([2]; female, oral, only CYP2C19*1/*1 subjects, Fed, women, mean ± SD, read-out: Tmax) was 6.2 ± 1.1 h. It also gave an AUC(0-inf) [2, 9] of 7320 ± 2710 ng·h/mL, a CL/F [2, 9] of 1.83 mL/min/kg and a Vd/F [2, 9] of 0.16 ± 0.03 L/kg. It also gave a half-life [2, 9] of 1.1 ± 0.3 h, a Cmax [2, 9] of 3240 ± 859 ng/mL and a Tmax ([2]; female, po, Fast, women, single oral dose, mean ± SD, read-out: Tmax) of 2.9 ± 0.8 h. It also gave an AUC(0-inf) [2, 10] of 4660 ± 1790 ng·h/mL, a CL/F [2, 10] of 2.83 mL/min/kg and a Vd/F [2, 10] of 0.28 ± 0.12 L/kg. For the same compound, the half-life [2, 10] was 1.2 ± 0.7 h, the Cmax [2, 10] was 2700 ± 614 ng/mL and the Tmax ([2]; female, po, Fed, women, single oral dose, mean ± SD, read-out: Tmax) was 8.4 ± 3.7 h. For the same compound, the AUC(0-inf) [2, 11] was 4780 ± 2470 ng·h/mL, the CL/F [2, 11] was 2.33 mL/min/kg and the Vd/F [2, 11] was 0.2 ± 0.02 L/kg. The half-life [2, 11] was 1.3 ± 0.5 h, the Cmax [2, 11] was 2020 ± 493 ng/mL and the Tmax ([2]; male, oral, only CYP2C19*1/*1 subjects, Fast, men, mean ± SD, read-out: Tmax) was 3 ± 0.7 h. For the same compound, the AUC(0-inf) [2, 12] was 4520 ± 2520 ng·h/mL, the CL/F [2, 12] was 2.5 mL/min/kg and the Vd/F [2, 12] was 0.23 ± 0.03 L/kg. For the same compound, the half-life [2, 12] was 1.2 ± 0.6 h, the Cmax [2, 12] was 2560 ± 581 ng/mL and the Tmax ([2]; male, oral, only CYP2C19*1/*1 subjects, Fed, men, mean ± SD, read-out: Tmax) was 5.3 ± 1.1 h. It also gave an AUC(0-inf) [2, 13] of 6580 ± 3830 ng·h/mL, a CL/F [2, 13] of 1.83 mL/min/kg and a Vd/F [2, 13] of 0.18 ± 0.03 L/kg. It also gave a half-life [2, 13] of 1.5 ± 0.7 h, a Cmax [2, 13] of 2320 ± 581 ng/mL and a Tmax ([2]; male, po, Fast, men, single oral dose, mean ± SD, read-out: Tmax) of 3.1 ± 0.8 h. For the same compound, the AUC(0-inf) [2, 14] was 4610 ± 2270 ng·h/mL, the CL/F [2, 14] was 2.5 mL/min/kg and the Vd/F [2, 14] was 0.25 ± 0.08 L/kg. For the same compound, the half-life [2, 14] was 1.3 ± 0.5 h, the Cmax [2, 14] was 2590 ± 601 ng/mL and the Tmax ([2]; male, po, Fed, men, single oral dose, mean ± SD, read-out: Tmax) was 5.6 ± 1.1 h. For the same compound, the Ke ([2]; only CYP2C19*1/*1 subjects, Fast, men and women, mean ± SD) was 0.64 ± 0.19, the Ke ([2]; only CYP2C19*1/*1 subjects, Fast, men, mean ± SD) was 0.64 ± 0.23 and the Ke ([2]; only CYP2C19*1/*1 subjects, Fast, women, mean ± SD) was 0.63 ± 0.12. It also gave a Ke ([2]; only CYP2C19*1/*1 subjects, Fed, men and women, mean ± SD) of 0.67 ± 0.20, a Ke ([2]; only CYP2C19*1/*1 subjects, Fed, men, mean ± SD) of 0.67 ± 0.25 and a Ke ([2]; only CYP2C19*1/*1 subjects, Fed, women, mean ± SD) of 0.68 ± 0.14.
